What was measured:
Format in all cases: in vivo, rat
Zucker fatty rats = assay: Urinary albumin excretion in Zucker fatty rats (24-hour urine pooling, A/G B Test Wako)
Description: (§1) Male Zucker fatty rats (ZF rats, 18 weeks of age, Charles River Japan Inc.), which have hyperinsulinemia and spontaneously develop renal disease, were given oral administration of candesartan cilexetil (angiotensin II type 1 receptor antagonist) in suspension in 0.5% methylcellulose 100 cP once daily for 9 consecutive weeks. For a control group and a normal control group, male Zucker lean rats at the same weeks of age (ZL rats, Charles River Japan Inc.) were given oral administration of 0.5% methylcellulose 100 cP (vehicle) once daily for consecutive days. At 8 weeks of administration, 24-hour urine pooling was conducted, and urinary albumin excretion was measured using the A/G B Test Wako (Wako Pure Chemical Industries, Ltd.). At 9 weeks of administration, kidneys were collected and stored at −80° C. After the sample was disrupted, total RNA was extracted. A primer and a fluorescent probe were prepared on the basis of reported (ibidem) mRNA sequences, and various mRNA expression levels were measured by the real-time quantitative RT-PCR method using ABI PRISM7700 (Applied Biosystems).

TSC-22 mRNA = TSC-22 mRNA expression level in kidneys of Zucker fatty rats (real-time quantitative RT-PCR)
Description: as §1

TGF-β1 mRNA = TGF-β1 mRNA expression level in kidneys of Zucker fatty rats (real-time quantitative RT-PCR)
Description: as §1

[1] = Zucker fatty rats, administration of the drug

With `CCOc1nc2cccc(C(=O)OC(C)OC(=O)OC3CCCCC3)c2n1Cc1ccc(-c2ccccc2-c2nnn[nH]2)cc1` (stereo not drawn) [Candesartan cilexetil, candesartan cilexetil] the “increase in urinary albumin excretion (in words)” value (Zucker fatty rats; [1]) was “suppressed”, the Urinary albumin excretion (Zucker fatty rats; male ZF rats, oral once daily, at 8 weeks of administration, n = 8-9, Mean (ZF vehicle 401.5, ZL vehicle 48.5)) was 61.7 mg/day and the “increase in TSC-22 mRNA expression level in the kidneys (in words)” value (TSC-22 mRNA; [1]) was “suppressed”. For the same molecule, the “mRNA expression level of TSC-22 in the kidneys (relative value with the expression level in the kidneys of Zucker lean rats as 1)” value (TSC-22 mRNA; male ZF rats, oral once daily, kidneys collected at 9 weeks of administration, n = 8-9, Mean (ZF vehicle 2.4)) was 1.6, the “increase in TGF-β1 mRNA expression level in the kidneys (in words)” value (TGF-β1 mRNA; [1]) was “suppressed” and the “mRNA expression level of TGF-β1 in the kidneys (relative value with the expression level in the kidneys of Zucker lean rats as 1)” value (TGF-β1 mRNA; male ZF rats, oral once daily, kidneys collected at 9 weeks of administration, n = 8-9, Mean (ZF vehicle 2.1)) was 1.2.

From patent publication US20060035209A1, “Screening method” (priority 2002, published 2006)
